Earlier results, collected in patent publication US20110028397A1, “Use of Urokinase Type Plasminogen Activator Inhibitors for the Treatment of Corneal Disorders” (priority 2007, published 2011).
pKi: −log10 of the molar value.

What was measured:
[1] = molecular target: thrombin (Homo sapiens, UniProt P00734)
[2] = eye drop prepared freshly daily, stored in refrigerator between uses
[3] = in vivo, sc

| pKi [1] | inhibitory activity on storage [2] | biological availability [3] [%] | Compound | anticoagulant activity (in vitro and in vivo) | antithrombotic effect in in vivo studies (in vivo) |
| --- | --- | --- | --- | --- | --- |
| 7.12 | retains its inhibitory activity | – | N=C(N)NCCC[C@@H](C=O)NC(=O)[C@@H]1CCCN1C(=O)[C@H](N)Cc1ccccc1 [Ald-1, D-Phe-Pro-Arg-aldehyde] | significant anticoagulant activity | effective antithrombotic drug |
| – | – | 87 | iBuOCO-D-Ser-Ala-Arg-aldehyde | – | – |
